According to ChEMBL document CHEMBL3580558, “Salternamides A-D from a Halophilic Streptomyces sp. Actinobacterium” (J Nat Prod, 2015):

How the values were obtained:
[1] = test system: A549; test: Antiproliferative activity against human A549 cells after 3 days by sulforhodamine B assay; type: functional, cell-based; conditions: A549, 72 h
[2] = test system: HCT-116; test: Antiproliferative activity against human HCT116 cells after 3 days by sulforhodamine B assay; type: functional, cell-based; conditions: HCT-116, 72 h
[3] = Antiproliferative activity against human SNU638 cells after 3 days by sulforhodamine B assay; type: functional, cell-based; conditions: SNU-638, 72 h
[4] = test system: K562; test: Antiproliferative activity against human K562 cells after 3 days by sulforhodamine B assay; type: functional, cell-based; conditions: K562, 72 h
[5] = Antiproliferative activity against human SKHEP1 cells after 3 days by sulforhodamine B assay; type: functional, cell-based; conditions: SK-HEP1, 72 h
[6] = test system: MDA-MB-231; test: Antiproliferative activity against human MDA-MB-231 cells after 3 days by sulforhodamine B assay; type: functional, cell-based; conditions: MDA-MB-231, 72 h
[7] = Inhibition of porcine cerebral cortex Na+/K+ ATPase incubated at 37 degC for 30 mins using 3-O-methylfluorescein phosphate and […] by fluorometry; type: tissue-based, Sus scrofa

| Compound | IC50 [1] [µM] | IC50 [2] [µM] | IC50 [3] [µM] | IC50 [4] [µM] | IC50 [5] [µM] | IC50 [6] [µM] | IC50 ([7]; read-out: IC50) [µM] | IC50 [7] |
| --- | --- | --- | --- | --- | --- | --- | --- | --- |
| CC(C)=C[C@H](C)C[C@H](C)/C=C/C(=O)NC1=C[C@](O)(CCCCC(=O)O)C=C(Cl)C1=O | 36 | 0.96 | 0.96 | 8.9 | 2.7 | 8.9 | 62 |  |
| CC(C)=C[C@H](C)C[C@H](C)/C=C/C(=O)NC1=C[C@](O)(CCCCC(=O)O)C=CC1=O | 82 | 55 | 27 | > 100 | 56 | 27 |  | Not Active |
| CC(C)=C[C@H](C)C[C@H](C)/C=C/C(=O)NC1=C[C@](O)(CCCCC(=O)O)[C@@H](O)CC1=O | > 100 | > 100 | > 100 | > 100 | > 100 | > 100 | > 100 |  |
| CC(C)=C[C@H](C)C[C@H](C)/C=C(\C)C(=O)NC1=C[C@](O)(CCCCC(=O)O)[C@@H](O)CC1=O | > 100 | 34 | 15 | 59 | 32 | 92 | 30 |  |
| COc1cc([C@@H]2c3cc4c(cc3[C@@H](O[C@@H]3O[C@@H]5CO[C@@H](C)O[C@H]5[C@H](O)[C@H]3O)[C@H]3COC(=O)[C@H]23)OCO4)cc(OC)c1O [ETOPOSIDE] | 0.8 |  | 0.5 | 3.1 | 1.1 | 11 |  |  |
| C[C@@H]1O[C@@H](O[C@H]2C[C@@H](O)[C@]3(CO)[C@H]4[C@H](O)C[C@]5(C)[C@@H](C6=CC(=O)OC6)CC[C@]5(O)[C@@H]4CC[C@]3(O)C2)[C@H](O)[C@H](O)[C@H]1O [OUABAIN] |  |  |  |  |  |  | 3.8 |  |
